Paper PMC9739180, “Discovery of a Flavonoid FM04 as a Potent Inhibitor to Reverse P-Glycoprotein-Mediated Drug Resistance in Xenografts and Improve Oral Bioavailability of Paclitaxel” (International Journal of Molecular Sciences, 2022)
Read-outs that look alike come from different tables or passages of the source.

Key:
P-gp [1] = target: T1, P-gp (Homo sapiens, UniProt P08183); test: Transepithelial transport of PTX, Caco-2 transwell assay; assay type: in vitro ADME
Procedure: Figure 7 Mechanistic study of FM04 to increase the oral PTX absorption. (A) transepithelial permeability of PTX in Caco-2 transwell assay. When confluent monolayer of Caco2 cells was formed on the transwell, the permeability of PTX (10 μM) was studied with or without FM04 (10 μM). For apical to basolateral transport (A to B), compound was added at the apical side (donor) and samples of the medium collected at the basal side (receiver) at 0, 20, 40, 60, 80, 100 and 120 min and vice versa for basal to apical transport (B to A). The PTX level was determined using UPLC-MS/MS. The relative % of PTX was presented as mean ± standard error of mean. N = 2–3 independent experiments. Impact of FM04 on PTX metabolism. […] After incubation, the levels of PTX, metabolites 6α-hydroxpaclitaxel (6α-OHP) and p3′-hydroxpaclitaxel (p3-OHP) were determined by HPLC-MS/MS. (B) changes in PTX. […]
Caco-2 cells in between passage number 21 and 30 were used for the experiment, 1 × 10^5 cells/cm^2 Caco-2 cells were seeded in Costar 6-well transwell plate (Corning Inc). […] The integrity of cell monolayers was evaluated on the day of experiments by measuring the trans-epithelial electrical resistance (TEER) of the cell monolayers. […] Drug transport was evaluated at 37 °C by incubating the cells in media containing PTX (10 μM) with or without FM04 (10 μM) at the donor chamber and samples collected at the receiver chamber. […]

P-gp [2] = target: T1, P-gp; test: Reversal of P-gp-mediated MDR in LCC6MDR cells (MTS cell viability, 5 days)
Procedure: To each well of a 96-well plate, 6500 cells of LCC6MDR were seeded in 180 μL supplemented medium. A 10 µL compound (FD18, 14a, FM04 or FM327) at different concentrations (0, 62.5, 125, 250, 500 and 1000 nM) was added to the well. […] The final volume in each well was 200 µL and the 96-well plate was incubated at 37 °C for 5 days. The cell viability was determined using the MTS assay as reported previously. The % of cell survival, IC50 of anticancer drugs towards the LCC6MDR and the EC50 of modulators were analyzed using nonlinear regression in Prism 5.0 (Prism version 5.0, GraphPad software, San Diego, CA, USA).

LCC6 cells = test: IC50 of anticancer drugs in wild-type LCC6 with or without FM04; assay type: cell-based, human
Description: Table S1. IC50 of anticancer drugs in LCC6 and LCC6MDR and P-gp modulating activity of FM04.
fold): IC50 of an anticancer drug of LCC6MDR without FM04/IC50 of an anticancer of LCC6 with or without
FM04 or LCC6MDR with FM04. N = 2 - 8 independent experiment. The IC50 values were presented as mean ±
standard error mean. /: not determined.

T1 sequence (P08183 whole entry): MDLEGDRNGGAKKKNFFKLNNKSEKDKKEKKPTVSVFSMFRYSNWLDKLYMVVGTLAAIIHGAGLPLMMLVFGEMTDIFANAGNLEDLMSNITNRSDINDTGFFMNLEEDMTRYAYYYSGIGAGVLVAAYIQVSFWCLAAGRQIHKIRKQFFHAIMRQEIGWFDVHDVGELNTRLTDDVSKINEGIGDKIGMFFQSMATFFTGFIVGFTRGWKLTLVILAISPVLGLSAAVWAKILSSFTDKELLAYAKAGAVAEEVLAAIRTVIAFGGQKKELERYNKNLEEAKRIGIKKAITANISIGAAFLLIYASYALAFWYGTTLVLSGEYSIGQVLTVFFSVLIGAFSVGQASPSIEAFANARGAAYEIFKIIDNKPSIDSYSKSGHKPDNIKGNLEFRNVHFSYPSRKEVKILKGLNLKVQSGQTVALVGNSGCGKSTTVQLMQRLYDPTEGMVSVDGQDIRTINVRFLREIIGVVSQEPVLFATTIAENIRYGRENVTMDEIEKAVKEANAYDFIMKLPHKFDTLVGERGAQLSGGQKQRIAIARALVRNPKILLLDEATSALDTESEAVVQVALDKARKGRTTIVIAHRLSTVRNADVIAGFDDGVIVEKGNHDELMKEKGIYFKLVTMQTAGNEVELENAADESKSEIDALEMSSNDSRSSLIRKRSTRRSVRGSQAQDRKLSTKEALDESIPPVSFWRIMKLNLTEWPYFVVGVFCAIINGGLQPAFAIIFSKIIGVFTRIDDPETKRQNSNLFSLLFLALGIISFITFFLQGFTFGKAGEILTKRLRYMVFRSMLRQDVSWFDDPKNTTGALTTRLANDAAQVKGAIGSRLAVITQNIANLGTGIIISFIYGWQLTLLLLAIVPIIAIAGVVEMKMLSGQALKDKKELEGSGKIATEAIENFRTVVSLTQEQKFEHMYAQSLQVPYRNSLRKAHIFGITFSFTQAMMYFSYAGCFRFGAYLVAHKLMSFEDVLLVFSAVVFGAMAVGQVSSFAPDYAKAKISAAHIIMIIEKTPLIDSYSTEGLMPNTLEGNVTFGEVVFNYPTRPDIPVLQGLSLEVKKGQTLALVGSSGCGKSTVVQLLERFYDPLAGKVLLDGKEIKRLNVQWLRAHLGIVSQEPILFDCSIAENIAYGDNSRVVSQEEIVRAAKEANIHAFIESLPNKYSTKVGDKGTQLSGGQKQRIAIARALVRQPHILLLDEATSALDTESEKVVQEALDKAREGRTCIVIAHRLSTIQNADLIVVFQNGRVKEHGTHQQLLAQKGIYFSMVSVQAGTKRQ

| decrease of PTX transport from B to A (P-gp [1]; PTX 10 μM + FM04 10 μM) [%] | SMILES | EC50 (P-gp [2]) [nM] | EC50 needed for reversing MDR in LCC6MDR cells: PTX (P-gp [2]) [nM] | fold higher potency than FD18 in reversing PTX resistance (P-gp [2]) [fold] | EC50 (P-gp [2]; EC50 for P-gp modulation, range over PTX reversal and DOX accumulation in LCC6MDR) [nM] | EC50 (P-gp [2]; EC50 for chemosensitizing LCC6MDR towards vinblastine, vincristine, DOX, daunorubicin and mitoxantrone, range over the five drugs) [nM] | EC50 (P-gp [2]; EC50 needed for reversing MDR in LCC6MDR cells: DOX, LCC6MDR) [nM] | EC50 (P-gp [2]; EC50 needed for reversing MDR in LCC6MDR cells: Daunorubicin, LCC6MDR) [nM] | EC50 (P-gp [2]; EC50 needed for reversing MDR in LCC6MDR cells: Mitoxantrone, LCC6MDR) [nM] | EC50 (P-gp [2]; EC50 needed for reversing MDR in LCC6MDR cells: PTX, LCC6MDR, PTX resistance) [nM] | EC50 (P-gp [2]; EC50 needed for reversing MDR in LCC6MDR cells: Vinblastine, LCC6MDR) [nM] | EC50 (P-gp [2]; EC50 needed for reversing MDR in LCC6MDR cells: Vincristine, LCC6MDR) [nM] | chemosensitization of wild-type LCC6 towards PTX, vinblastine and vincristine (LCC6 cells; FM04 1 μM) | direction of transepithelial transport of PTX (P-gp [1]; PTX 10 µM without FM04) | RF, LCC6MDR + 1 μM FM04 (P-gp [2]) | RF, LCC6MDR + DMSO (P-gp [2]) | IC50 (LCC6 cells; Homo sapiens, LCC-6, wild-type LCC6, no modulator, read-out: IC50 of anticancer drug, LCC6 + DMSO) [nM] | RF, LCC6 + DMSO (LCC6 cells; IC50 in LCC6MDR without FM04 / IC50 in LCC6) | RF, LCC6 + 1 μM FM04 (LCC6 cells; IC50 in LCC6MDR without FM04 / IC50 in LCC6 with FM04) |
| --- | --- | --- | --- | --- | --- | --- | --- | --- | --- | --- | --- | --- | --- | --- | --- | --- | --- | --- | --- |
| 17 | O=c1cc(-c2ccc(OCCOCCNCc3ccccc3)cc2)oc2ccccc12 [FM04, 2-(4-(2-(2-(benzylamino)ethoxy)ethoxy)phenyl)-4H-chromen-4-one] | 83 ± 7 | 83 | 1.8 | 64 to 83 | 61 to 153 | 153 ± 39 | 88 ± 52 | 64 ± 27 | 83 | 61 ± 13 | 83 ± 11 | did not chemosensitize the wild-type LCC6 cells | – | – | – | – | – | – |
| – | CC(=O)O[C@H]1C(=O)[C@@]2(C)[C@H]([C@H](OC(=O)c3ccccc3)[C@]3(O)C[C@H](OC(=O)[C@H](O)[C@@H](NC(=O)c4ccccc4)c4ccccc4)C(C)=C1C3(C)C)[C@]1(OC(C)=O)CO[C@@H]1C[C@@H]2O [PTX, paclitaxel] | – | – | – | – | – | – | – | – | – | – | – | – | only pumped from B to A, but not A to B | 34.1 | 1.0 | 2.1 ± 0.5 | 61.7 | 43.2 |
